Key:
human TTK = target: T1, human TTK (Homo sapiens, UniProt P33981); assay: TTK inhibition assay (indirect ELISA); format: biochemical; conditions: GST-TTK 0.68 nM, 16 μM ATP; read-out: IC50 Ranges TTK
T1 construct: amino terminal GST fusion of full length human TTK; purchased Invitrogen
T1 sequence (P33981 1-857): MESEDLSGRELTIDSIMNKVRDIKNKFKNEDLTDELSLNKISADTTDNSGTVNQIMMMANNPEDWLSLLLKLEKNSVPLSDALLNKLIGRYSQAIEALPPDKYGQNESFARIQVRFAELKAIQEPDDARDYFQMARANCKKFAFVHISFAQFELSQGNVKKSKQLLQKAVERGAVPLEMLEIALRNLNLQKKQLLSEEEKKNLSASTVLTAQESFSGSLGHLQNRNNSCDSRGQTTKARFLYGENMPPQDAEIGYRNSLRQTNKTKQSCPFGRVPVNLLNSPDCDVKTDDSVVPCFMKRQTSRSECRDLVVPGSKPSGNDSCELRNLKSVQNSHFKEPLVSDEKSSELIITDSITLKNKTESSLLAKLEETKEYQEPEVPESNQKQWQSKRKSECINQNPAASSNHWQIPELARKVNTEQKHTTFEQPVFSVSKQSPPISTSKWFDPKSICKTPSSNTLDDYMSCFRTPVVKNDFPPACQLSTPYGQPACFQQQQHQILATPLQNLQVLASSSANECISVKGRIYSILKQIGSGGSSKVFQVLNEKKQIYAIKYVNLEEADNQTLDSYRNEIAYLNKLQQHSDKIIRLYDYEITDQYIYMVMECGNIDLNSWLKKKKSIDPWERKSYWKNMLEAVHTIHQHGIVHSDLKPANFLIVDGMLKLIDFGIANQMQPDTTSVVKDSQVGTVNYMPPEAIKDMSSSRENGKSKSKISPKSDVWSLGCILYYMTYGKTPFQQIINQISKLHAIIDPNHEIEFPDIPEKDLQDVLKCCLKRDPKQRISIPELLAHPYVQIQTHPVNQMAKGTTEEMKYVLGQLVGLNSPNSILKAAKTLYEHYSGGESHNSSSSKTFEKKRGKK

human PLK4 = target: T2, human PLK4 (Homo sapiens, UniProt O00444); assay: PLK4 inhibition assay (indirect ELISA); format: biochemical; conditions: GST-PLK4 4 nM, 15 μM ATP; read-out: IC50 Ranges PLK4
T2 construct: amino terminal GST fusion of residues 1-391 of human PLK4; made in house; host or cells: E. coli
T2 sequence (O00444 1-391): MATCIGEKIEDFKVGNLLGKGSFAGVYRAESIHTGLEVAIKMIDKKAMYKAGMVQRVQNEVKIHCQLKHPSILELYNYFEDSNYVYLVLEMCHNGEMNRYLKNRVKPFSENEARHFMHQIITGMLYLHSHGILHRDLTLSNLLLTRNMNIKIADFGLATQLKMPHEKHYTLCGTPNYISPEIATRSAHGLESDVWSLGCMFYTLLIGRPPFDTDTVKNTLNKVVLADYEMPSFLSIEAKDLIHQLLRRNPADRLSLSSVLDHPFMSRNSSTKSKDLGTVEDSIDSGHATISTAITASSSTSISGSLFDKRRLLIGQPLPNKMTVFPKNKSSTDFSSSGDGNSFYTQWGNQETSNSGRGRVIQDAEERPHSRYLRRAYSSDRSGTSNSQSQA
Summary of the method: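 Dephosphorylated GST-tagged human PLK4 (residues 1-391, E. coli), 4 nM, preincubated 15 min with compound, then reacted 30 min with 15 μM ATP on MBP-coated plates (50 mM HEPES pH 7.5, 10 mM MgCl2, 0.01% Brij 35). Phospho-MBP detected by antibody ELISA at 450 nm. Tested at 10 μM or 10-point titrations; IC50 from 4-parameter logistic fit.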

Aurora B = target: T3, Aurora B (Homo sapiens, UniProt Q96GD4); assay: Aurora B inhibition assay (Z-Lyte); format: biochemical; conditions: 28 nM Aurora B, 128 μM ATP; read-out: IC50 Ranges Aurora B
T3 construct: purchased Invitrogen PV3970
T3 sequence (Q96GD4 whole entry): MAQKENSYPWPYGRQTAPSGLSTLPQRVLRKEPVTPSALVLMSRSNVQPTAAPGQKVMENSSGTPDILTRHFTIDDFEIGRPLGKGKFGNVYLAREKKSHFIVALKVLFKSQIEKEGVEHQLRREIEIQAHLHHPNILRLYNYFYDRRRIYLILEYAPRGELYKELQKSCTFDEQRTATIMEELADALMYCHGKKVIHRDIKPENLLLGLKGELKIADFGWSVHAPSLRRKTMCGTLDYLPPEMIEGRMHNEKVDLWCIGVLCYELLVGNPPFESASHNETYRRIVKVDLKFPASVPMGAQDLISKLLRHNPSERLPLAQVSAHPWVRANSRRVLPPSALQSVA
Protocol: Aurora B inhibition was determined using the Z-Lyte assay kit from Invitrogen. The assay was performed using the recommended manufacturer's instructions with 128 μM ATP and 28 nM Aurora B (Invitrogen cat #PV3970). The % inhibition values were determined according to the manufacturer's directions and IC50 values were obtained using a non-linear 4 point logistic curve fit (XLfit4, IDBS)

[1] = tested on: MDA-MB-231 breast cancer cells; assay: Cell growth inhibition, Sulforhodamine B assay, MDA-MB-231; format: cell-based; conditions: Homo sapiens, 120 h, 5 days culture, SRB assay, read-out: Cell Line GI50 Range MDA-MB-231
Protocol: Breast cancer cells (MDA-MB-231, MDA-MB-468), colon cancer cells (HCT116, HT29) and ovarian cancer cells (PA-1, OVCAR-3) were seeded (1000 to 4000 in 80 μl per well depending on the cell growth rate) into 96 well plates 24 hours before compound overlay. Compounds were prepared as 10 mM stock solutions in 100% DMSO which were diluted with DMEM (Dulbecco's Modified Eagle's Medium) cell growth Medium (Invitrogen, Burlington, ON, Canada) containing 10% FBS (Fetal Bovine Serum) to concentrations ranging from 50 nM to 250 μM. Aliquots (20 μl) from each concentration were overlaid to 80 μl of the pre-seeded cells in the 96 well plates to make final concentrations of 10 nM to 50 μM. The cells were cultured for 5 days before the Sulforhodamine B assay (SRB) was performed to determine the compound's cell growth inhibition activity.
Sulforhodamine B (purchased from Sigma, Oakville, ON, Canada) is a water-soluble dye that binds to the basic amino acids of the cellular proteins. Thus, colorimetric measurement of the bound dye provides an estimate of the total protein mass that is related to the cell number. the cells are fixed in situ by gently aspirating off the culture media and adding 50 μl ice cold 10% Trichloroacetic Acid (TCA) per well and incubate at 4° C. for 30-60 min, The plates are washed with water five times and allowed to air dry for 5 min. Addition of 50 μl 0.4% (w/v) SRB solution in 1% (v/v) acetic acid to each well and incubatation for 30 min at RT completes the staining reaction. Following staining, plates are washed four times with 1% acetic acid to remove unbound dye and then allowed to air dry for 5 min. The stain is solubilized with 100 μl of 10 mM Tris pH 10.5 per well. Absorbance is read at 570 nm.
The percentage (%) of relative growth inhibition was calculated by comparing to DMSO treated only cells (100%). […] The GI50 was calculated using GraphPad PRISM software (GraphPad Software, Inc., San Diego, Calif., USA).

[2] = tested on: MDA-MB-468 breast cancer cells; assay: Cell growth inhibition, Sulforhodamine B assay, MDA-MB-468; format: cell-based; conditions: Homo sapiens, 120 h, 5 days culture, SRB assay, read-out: Cell Line GI50 Range MDA-MB-468
[3] = tested on: HCT116 colon cancer cells; assay: Cell growth inhibition, Sulforhodamine B assay, HCT116; format: cell-based; conditions: Homo sapiens, HCT-116, 120 h, 5 days culture, SRB assay, read-out: Cell Line GI50 Range HCT116
HT29 colon cancer cells = assay: Cell growth inhibition, Sulforhodamine B assay, HT29; format: cell-based; conditions: Homo sapiens, HT-29, 120 h, 5 days culture, SRB assay, read-out: Cell Line GI50 Range HT29
[4] = tested on: PA-1 ovarian cancer cells; assay: Cell growth inhibition, Sulforhodamine B assay, PA-1; format: cell-based; conditions: 120 h, 5 days culture, SRB assay, read-out: Cell Line GI50 Range PA-1
[5] = tested on: OVCAR-3 ovarian cancer cells; assay: Cell growth inhibition, Sulforhodamine B assay, OVCAR-3; format: cell-based; conditions: Homo sapiens, 120 h, 5 days culture, SRB assay, read-out: Cell Line GI50 Range OVCAR-3
[6] = tested on: Colon tumor initiating cells (TICs), 12 colon; assay: Colon tumor-initiating cell growth inhibition (Alamar Blue); format: cell-based; conditions: 216 h, 9 days, read-out: GI50 range 12 colon
Excerpt: Materials and Methods: Non-tissue or tissure cultured treated T-75 flask and 96-well plates were purchased from VWR. Vitamin B-27 supplement, MEM NEAA (minimum essential medium non essential amino acids), sodium pyruvate, L-glutamine, N2 supplement, penicillin-streptomycin and fungizone/amphotericin B were obtained from Invitrogen. Lipid mixture, heparin and EGF were purchased from Sigma; bFGF from BD Biosciences. Colon tumor initiating cells (TICs) were routinely maintained using non-tissue cultured treated T-75 flasks in DMEM:F12 medium containing 0.2XB-27 supplement, 4 ug/ml heparin, 1XMEM NEAA, 1× sodium pyruvate, 1 mM glutamine, 10 pg/ul bFGF, 20 pg/ul EGF, 1×N2 supplement, lipid mixture, penicillin-streptomycin and fungizone/amphotericin B. Ovarian TICs were routinely maintained using tissue cultured treated T-75 flasks in DMEM:F12 medium containing 1XB-27 supplement, 4 ug/ml heparin, 20 pg/ul bFGF, 20 pg/ul EGF and penicillin-streptomycin.
Compounds described herein were dissolved in DMSO and further diluted in cell culture medium for GI50 determination. Colon TICs were trypsinized and seeded into non-tissue cultured treated 96-well plates with 4,000 cells/well. After 24 h, compound was added into the cell culture at different concentrations, and the final concentration of DMSO was adjusted to 0.1%. Cells were then cultured at 37° C. for 9 days. Ovarian TICs were trypsinized and seeded into tissue cultured treated 96-well plates with 1,000 cells/well. After 24 h, compound was added into the cell culture at different concentrations, and the final concentration of DMSO was adjusted to 0.1%. Cells were then cultured at 37° C. for 6 days. Cell viability was assessed by Alamar Blue assay: 10 ul of Alamar Blue was added into each well. After 4 hours incubation at 37° C., fluorescence was recorded at excitation 544 and emission 590. GI50 (Growth inhibition) was calculated using GraphPad Prism 4.0 software.

[7] = tested on: Ovarian TICs, 2393A ovarian; assay: Ovarian tumor-initiating cell growth inhibition (Alamar Blue); format: cell-based; conditions: 144 h, 6 days, read-out: GI50 range 2393A ovarian

CC[C@@H](NC(=O)c1ccc2[nH]nc(-c3ccc(OC4CCN(C)CC4)cc3)c2c1)c1cccc(OC)c1 [Example A174, (R)—N-(1-(3-methoxyphenyl)propyl)-3-(4-((1-methylpiperidin-4-yl)oxy)phenyl)-1H-indazole-5-carboxamide]
≤ 5 µM: IC50 (human TTK) | IC50 (human PLK4) | IC50 (Aurora B) | GI50 [1] | GI50 [2] | GI50 [3] | GI50 (HT29 colon cancer cells) | GI50 [4] | GI50 [5] | GI50 [6] | GI50 [7]

COCCN1CCC(Oc2ccc(-c3n[nH]c4ccc(C(=O)N[C@H](c5cccs5)C5CC5)cc34)cc2)CC1 [Example A163, (S)—N-(cyclopropyl(thiophen-2-yl)methyl)-3-(4-((1-(2-methoxyethyl)piperidin-4-yl)oxy)phenyl)-1H-indazole-5-carboxamide]
≤ 5 µM: IC50 (human TTK) | IC50 (human PLK4) | IC50 (Aurora B) | GI50 [1] | GI50 [2] | GI50 [3] | GI50 (HT29 colon cancer cells) | GI50 [4] | GI50 [5] | GI50 [6] | GI50 [7]

CN1[C@@H]2CC[C@H]1C[C@@H](Oc1ccc(-c3n[nH]c4ccc(C(=O)NC(c5ccccc5)C5CC5)cc34)cc1)C2 (stereo partly drawn) [Example A178, N-(cyclopropyl(phenyl)methyl)-3-(4-(((1R,3r,5S)-8-methyl-8-azabicyclo[3.2.1]octan-3-yl)oxy)phenyl)-1H-indazole-5-carboxamide]
≤ 5 µM: IC50 (human TTK) | IC50 (human PLK4) | IC50 (Aurora B) | GI50 [1] | GI50 [2] | GI50 [3] | GI50 (HT29 colon cancer cells) | GI50 [4] | GI50 [5] | GI50 [6] | GI50 [7]

Cc1ccccc1C(NC(=O)c1ccc2[nH]nc(-c3ccc(OC4CCN(C)CC4)cc3)c2c1)C1CC1 (centres unmarked) [Example A132, N-(cyclopropyl(o-tolyl)methyl)-3-(4-((1-methylpiperidin-4-yl)oxy)phenyl)-1H-indazole-5-carboxamide]
≤ 5 µM: IC50 (human TTK) | IC50 (human PLK4) | IC50 (Aurora B) | GI50 [1] | GI50 [2] | GI50 [3] | GI50 (HT29 colon cancer cells) | GI50 [4] | GI50 [5] | GI50 [6] | GI50 [7]

O=CN1CCC(Oc2ccc(-c3n[nH]c4ccc(NC(=O)C(c5ccccn5)C5CCCC5)cc34)cc2)CC1 (centres unmarked) [Example A176, 2-cyclopentyl-N-(3-(4-((1-formylpiperidin-4-yl)oxy)phenyl)-1H-indazol-5-yl)-2-(pyridin-2-yl)acetamide]
≤ 5 µM: IC50 (human TTK) | IC50 (human PLK4) | IC50 (Aurora B) | GI50 [1] | GI50 [2] | GI50 [3] | GI50 (HT29 colon cancer cells) | GI50 [4] | GI50 [5] | GI50 [6] | GI50 [7]

O=C(NC(c1ccccc1)C1CC1)c1ccc2[nH]nc(-c3ccc(OC4CCN(C5COC5)CC4)cc3)c2c1 (centres unmarked) [Example A157]
≤ 5 µM: IC50 (human TTK) | IC50 (human PLK4) | IC50 (Aurora B) | GI50 [1] | GI50 [2] | GI50 [3] | GI50 (HT29 colon cancer cells) | GI50 [4] | GI50 [5] | GI50 [6] | GI50 [7]

CC[C@@H](NC(=O)c1ccc2[nH]nc(-c3ccc(OC4CCN(CCOC)CC4)cc3)c2c1)c1ccccc1Cl [Example A128, (R)—N-(1-(2-chlorophenyl)propyl)-3-(4-((1-(2-methoxyethyl)piperidin-4-yl)oxy)phenyl)-1H-indazole-5-carboxamide]
≤ 5 µM: IC50 (human TTK) | IC50 (human PLK4) | IC50 (Aurora B) | GI50 [1] | GI50 [2] | GI50 [3] | GI50 (HT29 colon cancer cells) | GI50 [4] | GI50 [5] | GI50 [6] | GI50 [7]

Reference: US20140051679A1, “KINASE INHIBITORS AND METHOD OF TREATING CANCER WITH SAME” (UNIVERISTY HEALTH NETWORKS, priority 2011, published 2014)
